The melting point is the temperature, or range, at which the solid turns liquid.

Compound `CC(C)c1[nH]n(-c2c(Cl)cc(Cl)cc2Cl)c2nc(Cc3ccc(NC(=O)OCCCN(C)C)cc3)nc(=O)c1-2` [Example 1, 1-(2,4,6-trichlorophenyl)-3-isopropyl-6-(4-(3-(N,N-dimethylamino)prop-1-yloxycarbonylamino)benzyl)pyrazolo[3,4-d]pyrimidin-4-one] registered a melting point of 200 to 202 °C.

The values are drawn from US20040248905A1, “6-Substituted pyrazolo [3,4-d] pyrimidin-4-ones useful as cyclin dependent kinase inhibitors” (priority 2001, published 2004).
